Data from ChEMBL document CHEMBL1201862, “PubChem BioAssay data set” (2004).
Active and inactive are the calls of the source.

Assays:
[1] = target: T1, Corticotropin-releasing factor receptor 2/Corticotropin-releasing factor-binding protein (Homo sapiens, UniProt P24387+Q13324); test: Dose Response confirmation of uHTS hits for small molecule antagonists of the CRF-binding protein and CRF-R2 receptor complex.; format: functional; settings: read-out: IC50_Mean
T1 sequence (Q13324 whole entry): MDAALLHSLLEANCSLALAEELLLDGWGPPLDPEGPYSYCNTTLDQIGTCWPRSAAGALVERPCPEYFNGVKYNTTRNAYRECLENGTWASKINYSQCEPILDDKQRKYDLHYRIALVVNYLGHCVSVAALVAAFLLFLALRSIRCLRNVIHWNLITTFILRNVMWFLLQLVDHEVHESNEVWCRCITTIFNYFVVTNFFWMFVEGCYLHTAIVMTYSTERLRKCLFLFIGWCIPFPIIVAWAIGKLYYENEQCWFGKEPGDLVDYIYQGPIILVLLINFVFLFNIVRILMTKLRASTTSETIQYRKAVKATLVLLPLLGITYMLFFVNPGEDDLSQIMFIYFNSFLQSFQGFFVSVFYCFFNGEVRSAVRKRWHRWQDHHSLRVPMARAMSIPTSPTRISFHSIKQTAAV
T1 sequence (P24387 whole entry): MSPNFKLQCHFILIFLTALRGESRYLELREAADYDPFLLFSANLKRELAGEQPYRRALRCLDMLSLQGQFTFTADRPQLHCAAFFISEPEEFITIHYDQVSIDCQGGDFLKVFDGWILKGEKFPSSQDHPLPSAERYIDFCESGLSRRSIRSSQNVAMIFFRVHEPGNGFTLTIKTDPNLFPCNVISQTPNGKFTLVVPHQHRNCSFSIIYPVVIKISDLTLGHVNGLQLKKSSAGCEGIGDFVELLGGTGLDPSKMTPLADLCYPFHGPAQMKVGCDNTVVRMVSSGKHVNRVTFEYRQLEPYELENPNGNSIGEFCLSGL

[2] = target: T1, Corticotropin-releasing factor receptor 2/Corticotropin-releasing factor-binding protein; test: activators of CRF receptor 2 with binding protein – uHTS hits, confirmation (AID 602473); format: functional; settings: read-out: EC50_Mean
[3] = target: T2, Zinc finger protein mex-5 (Caenorhabditis elegans, UniProt Q9XUB2); test: potency of MEX-5 RNA-binding blockers – biochemical, C. elegans, fluorescence polarization, dose response (AID 1960)
T2 sequence (Q9XUB2 whole entry): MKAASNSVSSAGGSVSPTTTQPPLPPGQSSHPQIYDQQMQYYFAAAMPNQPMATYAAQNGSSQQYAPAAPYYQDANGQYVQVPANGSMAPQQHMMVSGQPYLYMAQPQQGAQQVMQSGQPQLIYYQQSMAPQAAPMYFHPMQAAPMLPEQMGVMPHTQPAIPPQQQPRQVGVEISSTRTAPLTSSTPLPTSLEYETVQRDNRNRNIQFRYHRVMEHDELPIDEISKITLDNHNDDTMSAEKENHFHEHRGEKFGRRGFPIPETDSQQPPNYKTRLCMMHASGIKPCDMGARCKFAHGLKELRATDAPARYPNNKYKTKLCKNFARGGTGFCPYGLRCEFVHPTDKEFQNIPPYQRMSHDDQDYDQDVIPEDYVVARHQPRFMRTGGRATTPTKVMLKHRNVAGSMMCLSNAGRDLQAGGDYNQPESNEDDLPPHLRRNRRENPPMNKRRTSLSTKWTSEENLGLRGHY

[4] = target: T3, RNA-binding protein pos-1 (Caenorhabditis elegans, UniProt G5EF15); test: disruptors of C. elegans POS-1 RNA interaction – biochemical, fluorescence polarization, dose response (AID 1964);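 note: purified POS-1 fused to maltose binding protein made in E. coli; potency of compounds blocking POS-1 binding to fluorescent RNA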
T3 sequence (G5EF15 whole entry): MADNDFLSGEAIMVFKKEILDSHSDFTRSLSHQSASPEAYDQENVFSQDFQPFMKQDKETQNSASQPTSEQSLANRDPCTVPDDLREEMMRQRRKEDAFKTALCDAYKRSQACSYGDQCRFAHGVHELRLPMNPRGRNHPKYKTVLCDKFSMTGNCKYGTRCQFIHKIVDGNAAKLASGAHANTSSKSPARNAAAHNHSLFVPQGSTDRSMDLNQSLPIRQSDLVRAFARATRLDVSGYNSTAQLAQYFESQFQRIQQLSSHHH

[5] = target: Luciferin 4-monooxygenase (Photinus pyralis, UniProt P08659); test: inhibition of purified Photinus pyralis luciferase – biochemical, luminescence, dose response (AID 1891)
Luciferin 4-monooxygenase, sequence (P08659 whole entry): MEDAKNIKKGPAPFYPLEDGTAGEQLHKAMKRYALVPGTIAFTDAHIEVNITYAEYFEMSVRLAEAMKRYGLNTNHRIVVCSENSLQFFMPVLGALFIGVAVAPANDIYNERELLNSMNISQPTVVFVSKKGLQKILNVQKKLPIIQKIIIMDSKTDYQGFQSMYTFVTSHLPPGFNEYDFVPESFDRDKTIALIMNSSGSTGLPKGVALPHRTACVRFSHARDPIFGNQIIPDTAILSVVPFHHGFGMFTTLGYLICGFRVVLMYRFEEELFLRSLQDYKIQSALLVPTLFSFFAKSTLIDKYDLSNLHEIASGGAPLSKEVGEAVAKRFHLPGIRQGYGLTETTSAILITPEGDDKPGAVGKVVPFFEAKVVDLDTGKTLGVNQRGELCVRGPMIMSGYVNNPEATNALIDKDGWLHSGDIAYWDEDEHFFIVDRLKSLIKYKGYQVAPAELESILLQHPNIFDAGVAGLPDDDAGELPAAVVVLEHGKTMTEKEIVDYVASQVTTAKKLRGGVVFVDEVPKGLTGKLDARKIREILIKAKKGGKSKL

[6] = Luminescence Cell-Based Dose Confirmation HTS to Identify Inhibitors of Platelet Dense Granule Release. [Related pubchem assays: 1663 (Primary HTS), 1678 (Summary of Project)]; format: functional
[7] = target: Nonstructural protein 1 (Influenza A virus, UniProt Q194T2); format: functional, Influenza A virus (A/California/07/2009(H1N1))
Nonstructural protein 1, sequence (Q194T2 whole entry): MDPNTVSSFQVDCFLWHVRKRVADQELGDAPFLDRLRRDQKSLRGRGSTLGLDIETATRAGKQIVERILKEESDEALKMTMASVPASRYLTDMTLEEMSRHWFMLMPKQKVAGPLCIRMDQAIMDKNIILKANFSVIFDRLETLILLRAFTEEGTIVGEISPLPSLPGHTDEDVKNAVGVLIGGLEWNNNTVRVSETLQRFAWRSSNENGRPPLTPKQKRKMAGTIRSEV

[8] = loss of viability in HepG2 cells – cell-based, CellTiter-Glo, cherry-picked, cytotoxicity control for Shn3 inhibitor project, dose response (AID 624134); format: functional
[9] = non-specific 3'UTR reporter inhibition in Clone20-Shn3RL – cell-based, Renilla luciferase, cherry-picked, counter-screen for Shn3 inhibitor project, dose response (AID 624133); format: functional
[10] = reduction of Shn3 3'UTR-driven luciferase in osteoblasts – cell-based, Clone20 osteoblasts, firefly luciferase, cherry-picked, dose response (AID 624132); format: functional;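 note: firefly luciferase luminescence from reporter carrying the Shn3 3'UTR in osteoblasts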
[11] = target: Paired box protein Pax-8 (Homo sapiens, UniProt Q06710); test: PAX8 transcriptional activity inhibition in RMG-I – RMG-I cells, luciferase, cherry-pick, dose response (AID 687027); format: functional, cell-based;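 note: luciferase reporter driven by Pax8 target thyroperoxidase promoter measured by SteadyGlo luminescence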
Paired box protein Pax-8, sequence (Q06710 whole entry): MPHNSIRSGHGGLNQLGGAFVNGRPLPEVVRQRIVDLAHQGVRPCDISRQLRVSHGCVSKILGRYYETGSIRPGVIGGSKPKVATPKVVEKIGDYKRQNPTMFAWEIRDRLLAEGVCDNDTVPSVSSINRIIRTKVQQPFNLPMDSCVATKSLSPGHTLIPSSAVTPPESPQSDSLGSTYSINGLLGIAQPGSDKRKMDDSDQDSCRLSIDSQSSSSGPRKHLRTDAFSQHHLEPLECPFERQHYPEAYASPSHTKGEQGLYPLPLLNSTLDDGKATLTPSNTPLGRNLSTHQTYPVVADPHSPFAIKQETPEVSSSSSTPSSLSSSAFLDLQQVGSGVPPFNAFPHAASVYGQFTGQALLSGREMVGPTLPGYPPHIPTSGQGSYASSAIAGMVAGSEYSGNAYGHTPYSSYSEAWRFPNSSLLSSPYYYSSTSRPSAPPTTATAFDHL

In the case of `Cc1cc(C)c2c(CC(=O)Nc3nccs3)coc2c1`, the IC50 [1] is reported as > 47.1 µM (inactive) and the EC50 [2] is reported as > 53 µM (inactive).
In the case of `CN1C(=O)C(=Cc2c[nH]c3ccccc23)C(=O)N(C)C1=O`, the EC50 [3] is reported as 151 µM (active) and the EC50 [4] is reported as 52.9 µM (active).
With `COc1ccc(P(=O)(COc2ccc([N+](=O)[O-])cc2)c2ccc(OC)cc2)cc1` the EC50 [5] was > 112 µM (not active) and the EC50 [6] was > 112 µM (not active).
In the case of `CNc1nc2c(N)ncnc2n1[C@H]1O[C@@H](CO)[C@H](O)[C@@H]1O`, the EC50 [5] is reported as > 112 µM (not active) and the EC50 [6] is reported as 1.36 µM (active).
For `CCC(Oc1ccccc1)C(=O)Nc1ccccn1` (configuration not stated), the EC50 [3] was > 300 µM (not active) and the EC50 [4] was > 300 µM (not active).
For `CN(C)c1ccc(C2CC(c3cccc(NS(C)(=O)=O)c3)=NN2C(=O)c2ccccc2)cc1` (configuration not stated), the IC50 [7] was > 100 µM (active).
With `COc1ccc(CNCCC(c2ccc(OC(C)C)cc2)c2ccccc2OC)cc1OC` (configuration not stated) the AC50 [8] was 19.1 µM (active), the AC50 [9] was 5.37 µM (active) and the AC50 [10] was 4.35 µM (active).
For `Nc1ncnc(NNC(=O)CNC(=O)c2c(F)cccc2Cl)c1[N+](=O)[O-]`, the IC50 [1] was > 47.1 µM (inactive), the EC50 [3] was 0.241 µM (active) and the EC50 [4] was 0.548 µM (active). For the same compound, the EC50 [2] was > 53 µM (inactive).
In the case of `COC(=O)Cc1ccc(NC(=S)NCCC(C)C)cc1`, the IC50 [1] is reported as > 47.1 µM (inactive) and the EC50 [2] is reported as > 53 µM (inactive).
For `O=c1[nH]n(-c2ncnc3c2cnn3-c2ccccc2)c(=O)c2ccccc12`, the EC50 [3] was 7.26 µM (active) and the EC50 [4] was 11.6 µM (active).
With `O=C(NC1CC1)c1ccc2c(c1)C1C3CCC(C3)C1C(c1ccccc1)N2` (configuration not stated) the AC50 [11] was 48.2 µM (active).
For `O=C1C(NS(=O)(=O)c2cccs2)=C(N2CCN(c3ccccc3)CC2)C(=O)c2ccccc21`, the IC50 [7] was 21.6 µM (active).
With `COc1cccc(=O)c2c(C)oc(C)c12` the EC50 [3] was > 300 µM (not active) and the EC50 [4] was > 300 µM (not active).
For `S=C(Nc1ccc2c(c1)OCO2)Nc1ccccc1Cl`, the IC50 [1] was > 47.1 µM (inactive) and the EC50 [2] was > 53 µM (inactive).
In the case of `Clc1ccc2nncn2n1`, the IC50 [1] is reported as > 47.1 µM (inactive) and the EC50 [2] is reported as > 53 µM (inactive).
In the case of `C[C@@H]1CN([C@H](C)CO)C(=O)c2cc(NC(=O)Nc3ccc(F)cc3)ccc2O[C@@H](C)CCCCO[C@H]1CN(C)Cc1ccc(Cl)c(Cl)c1`, the AC50 [11] is reported as 9.51 µM (active).
For `Cc1cccc(C)c1N1CCN(C(=O)c2ccc3c(c2)OCO3)CC1`, the IC50 [1] was > 47.1 µM (inactive) and the EC50 [2] was > 53 µM (inactive).
For `Cc1ccc2c(CC(=O)N3CCN(S(=O)(=O)c4cccs4)CC3)coc2c1`, the EC50 [5] was > 112 µM (not active) and the EC50 [6] was > 112 µM (not active).
In the case of `COCc1nnc(NC(=O)CSCc2ccccc2)s1`, the EC50 [5] is reported as > 112 µM (not active) and the EC50 [6] is reported as > 112 µM (not active).
